Entries after “also recorded” stand apart in the source; their conditions may differ.
Molecular target: T1, CRM-1 export receptor (Mus musculus, UniProt Q6P5F9)
T1 construct: NIH-3T3 cells were transfected with the indicated GFP reporter constructs; endogenous in cells; host or cells: NIH-3T3
Assay: Leptomycin B Nuclear Export Signal Assay (GFP reporter localization by confocal microscopy)
Format: cell-based
Conditions: NIH-3T3 cells, 24 hrs post-transfection, 200 nM Leptomycin B for 2 hrs
Method: The Leptomycin B Nuclear Export Signal Assay used NIH-3T3 cells grown on glass coverslips (Fisher) and transfected using Lipofectamine 2000 according to the manufacturers protocol. Cells 24 hrs post-transfection were treated with 200 nM Leptomycin B (Sigma) or DMSO (Mock) for 2 hrs. Cells were fixed with 3% PFA and mounted using ProLong (Molecular Probes) mounting medium. Confocal microscopy was performed on a Zeiss LSM 510 confocal system using an Axiovert 100 M microscope and a Plan/Apochromat 100×/Oil objective.

T1 sequence (Q6P5F9 whole entry): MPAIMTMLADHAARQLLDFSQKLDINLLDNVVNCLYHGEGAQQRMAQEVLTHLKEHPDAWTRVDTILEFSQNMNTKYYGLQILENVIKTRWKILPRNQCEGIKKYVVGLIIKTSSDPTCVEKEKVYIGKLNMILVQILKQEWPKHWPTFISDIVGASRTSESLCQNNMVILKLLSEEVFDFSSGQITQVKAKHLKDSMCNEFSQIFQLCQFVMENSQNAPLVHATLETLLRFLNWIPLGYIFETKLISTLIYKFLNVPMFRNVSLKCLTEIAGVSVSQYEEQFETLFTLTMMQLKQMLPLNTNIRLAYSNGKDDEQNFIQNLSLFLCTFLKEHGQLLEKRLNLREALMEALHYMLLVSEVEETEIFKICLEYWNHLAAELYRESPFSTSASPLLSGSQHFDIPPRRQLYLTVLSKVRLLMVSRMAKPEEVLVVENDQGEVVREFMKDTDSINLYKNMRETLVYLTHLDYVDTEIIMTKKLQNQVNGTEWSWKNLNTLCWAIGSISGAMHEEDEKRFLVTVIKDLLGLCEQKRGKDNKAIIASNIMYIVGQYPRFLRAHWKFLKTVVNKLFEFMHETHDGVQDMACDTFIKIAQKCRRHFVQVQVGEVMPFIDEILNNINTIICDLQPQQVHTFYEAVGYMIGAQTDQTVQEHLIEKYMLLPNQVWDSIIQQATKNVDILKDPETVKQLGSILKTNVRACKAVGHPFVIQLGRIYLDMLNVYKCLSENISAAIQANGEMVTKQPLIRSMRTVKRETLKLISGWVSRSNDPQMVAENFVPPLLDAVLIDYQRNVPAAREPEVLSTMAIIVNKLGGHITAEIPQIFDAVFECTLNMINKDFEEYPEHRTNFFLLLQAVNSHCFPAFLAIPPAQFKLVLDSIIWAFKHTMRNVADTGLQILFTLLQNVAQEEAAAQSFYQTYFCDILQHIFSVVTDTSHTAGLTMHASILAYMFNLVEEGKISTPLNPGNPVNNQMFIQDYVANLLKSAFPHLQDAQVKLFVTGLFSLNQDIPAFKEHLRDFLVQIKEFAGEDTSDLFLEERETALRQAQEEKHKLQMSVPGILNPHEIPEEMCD

## CCC(=C/[C@H](C)C/C=C/C(C)=C/[C@@H](C)C(=O)[C@@H](C)[C@H](O)[C@@H](C)C/C(C)=C/C(=O)O)/C=C/[C@@H]1OC(=O)C=C[C@@H]1C [LMB, Leptomycin B]
  effect on localization of GFP or NLS-GFP: unaffected
  effect on nuclear exclusion (cytoplasmic localization) of Htt 1-17-NLS-GFP: unaffected; also recorded: no effect
  effect on nuclear exclusion of control NES-GFP: quite sensitive; also recorded: efficiently reversed

— patent publication US20040235733A1, “Methods and reagents for reducing polyglutamine toxicity” (priority 2003, published 2004)
